Measurements reported in patent US7964531B2, “3-phenoxy-4-pyridazinol derivatives and herbicidal composition containing the same” (Mitsui Chemicals Agro, Inc., priority 2001, dated 2011).

SMILES	melting point [°C]
Cc1ccccc1Oc1nnc(Cl)cc1OS(=O)(=O)c1ccc(Cl)cc1 [Compound No. 2198, 6-Chloro-3-(2-methylphenoxy)-4-pyridazinyl 4-chlorobenzenesulfonate]	93 to 94
Cc1ccc(S(=O)(=O)Oc2cc(Cl)nnc2Oc2ccc(C(C)(C)C)cc2Br)cc1 [Compound No. 2245, 3-(2-Bromo-4-tert-butylphenoxy)-6-chloro-4-pyridazinyl 4-methylbenzenesulfonate]	110 to 112
CC(C)Cc1ccccc1Oc1nnc(Cl)cc1O [Compound No. 134, 6-Chloro-3-(2-isobutylphenoxy)-4-pyridazinol]	151.5 to 152.5
COc1cscc1C(=O)Oc1cc(Cl)nnc1Oc1c(C)cccc1C1CC1 [Compound No. 3378, 6-Chloro-3-(2-cyclopropyl-6-methylphenoxy)-4-pyridazinyl 4-methoxy-3-thiophenecarboxylate]	146 to 149
CSc1ccccc1Oc1nnc(Cl)cc1O [Compound No. 401, 6-Chloro-3-[2-(methylsulfanyl)phenoxy]-4-pyridazinol]	174 to 175
Cc1cccc(C2CC2)c1Oc1nnc(Cl)cc1OC(=O)c1cc(Cl)cc(Cl)c1 [Compound No. 3226, 6-Chloro-3-(2-cyclopropyl-6-methylphenoxy)-4-pyridazinyl 3,5-dichlorobenzoate]	168 to 174
CC(C)(C)c1ccccc1Oc1nnc(Cl)cc1O [Compound No. 136, 3-(2-tert-Butylphenoxy)-6-chloro-4-pyridazinol]	215 to 216
CCCCCCc1ccccc1Oc1nnc(Cl)cc1O [Compound No. 138, 6-Chloro-3-(2-hexylphenoxy)-4-pyridazinol]	118 to 118.5
CC(C)Oc1ccccc1Oc1nnc(Cl)cc1O [Compound No. 387, 6-Chloro-3-(2-isopropoxyphenoxy)-4-pyridazinol]	178 to 179
Cc1ccccc1Oc1nnc(Cl)cc1OC(=O)OCC(C)C [Compound No. 1757, 6-Chloro-3-(2-methylphenoxy)-4-pyridazinyl isobutyl carbonate]	46 to 47
Cc1cccc(C2CC2)c1Oc1nnc(Cl)cc1OS(=O)(=O)c1ccccc1 [Compound No. 2176, 6-Chloro-3-(2-cyclopropyl-6-methylphenoxy)-4-pyridazinyl benzenesulfonate]	105 to 106
Cc1ccc(S(=O)(=O)Oc2cc(Cl)nnc2Oc2cccc3ccccc23)cc1 [Compound No. 2240, 6-Chloro-3-(1-naphthyloxy)-4-pyridazinyl 4-methylbenzenesulfonate]	92 to 94
Cc1cc(C)c(C)c(Oc2nnc(Cl)cc2O)c1 [Compound No. 1016, 6-Chloro-3-(2,3,5-trimethylphenoxy)-4-pyridazinol]	223 to 224
Oc1cc(Cl)nnc1Oc1cccc2ccccc12 [Compound No. 527, 6-Chloro-3-(1-naphthyloxy)-4-pyridazinol]	243 to 245
CCOC1CC1c1ccccc1Oc1nnc(Cl)cc1O (stereo not shown) [Compound No. 249, 6-Chloro-3-[2-(2-ethoxycyclopropyl)phenoxy]-4-pyridazinol]	145 to 152
Cc1cccc(C2CC2)c1Oc1nnc(Cl)cc1OC(=O)c1cc2ccccc2s1 [Compound No. 3504, 6-Chloro-3-(2-cyclopropyl-6-methylphenoxy)-4-pyridazinyl 1-benzothiophene-2-carboxylate]	105 to 107
CN(C)S(=O)(=O)n1nccc1-c1ccccc1Oc1nnc(Cl)cc1O [Compound No. 369, 5-{2-[(6-Chloro-4-hydroxy-3-pyridazinyl)oxy]phenyl}N,N-dimethyl-1H-pyrazole-1-sulfonamide]	151 to 152

SMILES	melting point [°C]
CCc1ccccc1Oc1nnc(Cl)cc1O [Compound No. 130, 6-Chloro-3-(2-ethylphenoxy)-4-pyridazinol]	217 to 218
Oc1cc(Cl)nnc1Oc1cc(C(F)(F)F)cc(C(F)(F)F)c1 [Compound No. 1009, 3-[3,5-Bis(trifluoromethyl)phenoxy]-6-chloro-4-pyridazinol]	237 to 242
Cc1cccc(C2CC2)c1Oc1nnc(Cl)cc1OC(=O)c1cc(Cl)ccc1Cl [Compound No. 3100, 6-Chloro-3-(2-cyclopropyl-6-methylphenoxy)-4-pyridazinyl 2,5-dichlorobenzoate]	128 to 130
COc1ccc(C)c(Oc2nnc(Cl)cc2O)c1 [Compound No. 629, 6-Chloro-3-(5-methoxy-2-methylphenoxy)-4-pyridazinol]	170 to 172
N#Cc1cccc(Oc2nnc(Cl)cc2O)c1 [Compound No. 420, 3-[(6-Chloro-4-hydroxy-3-pyridazinyl)oxy]benzonitrile]	226 to 229
Cc1ccc(S(=O)(=O)Oc2cc(Cl)nnc2Oc2c(C)cccc2C2CC2)cc1 [Compound No. 2265, 6-Chloro-3-(2-cyclopropyl-6-methylphenoxy)-4-pyridazinyl 4-methylbenzenesulfonate]	85 to 87
COc1ccc(OC)c(Oc2nnc(Cl)cc2O)c1 [Compound No. 709, 6-Chloro-3-(2,5-dimethoxyphenoxy)-4-pyridazinol]	150 to 152
Cc1ccc(Br)c(Oc2nnc(Cl)cc2O)c1C [Compound No. 1058, 3-(6-Bromo-2,3-dimethylphenoxy)-6-chloro-4-pyridazinol]	263 to 268
Cc1ccccc1Oc1cc(O)c(Oc2ccccc2C)nn1 [Compound No. 2492, 3,6-Bis(2-methylphenoxy)-4-pyridazinol]	247 to 250
Cc1cc(O)c(Oc2ccccc2C(C)C)nn1 [Compound No. 2418, 3-(2-Isopropylphenoxy)-6-methyl-4-pyridazinol]	259 to 260
Cc1cccc(C2CC2)c1Oc1nnc(Cl)cc1OC(=O)N(C)c1ccccn1	140 to 147
CCOC(=O)Oc1cc(Cl)nnc1Oc1ccccc1C [Compound No. 1706, 6-Chloro-3-(2-methylphenoxy)-4-pyridazinyl ethyl carbonate]	73 to 74
CC(C)(C)c1ccc(Oc2nnc(Cl)cc2O)cc1 [Compound No. 433, 3-(4-tert-Butylphenoxy)-6-chloro-4-pyridazinol]	224 to 225
Cc1coc2cccc(Oc3nnc(Cl)cc3O)c12 [Compound No. 532, 6-Chloro-3-[(3-methyl-1-benzofuran-4-yl)oxy]-4-pyridazinol]	218 to 225
Oc1cc(Cl)nnc1Oc1cccc(C(F)(F)F)c1Cl [Compound No. 446, 6-Chloro-3-[2-chloro-3-(trifluoromethyl)phenoxy]-4-pyridazinol]	170 to 200
Cc1ccccc1C(=O)Oc1cc(Cl)nnc1Oc1ccccc1C1CCCCC1 [Compound No. 1455, 6-Chloro-3-(2-cyclohexylphenoxy)-4-pyridazinyl 2-methylbenzoate]	89 to 91
Cc1cc(C)c(Br)c(Oc2nnc(Cl)cc2O)c1 [Compound No. 1013, 3-(2-Bromo-3,5-dimethylphenoxy)-6-chloro-4-pyridazinol]	240 to 244

More lines, now with the values ahead:

melting point [°C]	SMILES
242 to 243	Cc1cccc(Br)c1Oc1nnc(Cl)cc1O [Compound No. 758, 3-(2-Bromo-6-methylphenoxy)-6-chloro-4-pyridazinol]
190 to 194	COc1cccc(F)c1Oc1nnc(Cl)cc1O [Compound No. 732, 6-Chloro-3-(2-fluoro-6-methoxyphenoxy)-4-pyridazinol]
194 to 195	CCc1cccc(Cl)c1Oc1nnc(Cl)cc1O [Compound No. 737, 6-Chloro-3-(2-chloro-6-ethylphenoxy)-4-pyridazinol]
200 to 203	Oc1cc(Cl)nnc1Oc1c(F)cccc1C1CC1 [Compound No. 719, 6-Chloro-3-(2-cyclopropyl-6-fluorophenoxy)-4-pyridazinol]
185 to 189	Oc1cc(Cl)nnc1Oc1cccc(C(F)(F)F)c1F [Compound No. 441, 6-Chloro-3-[2-fluoro-3-(trifluoromethyl)phenoxy]-4-pyridazinol]
224 to 237	COc1cccc(Oc2nnc(Cl)cc2O)c1C [Compound No. 459, 6-Chloro-3-(3-methoxy-2-methylphenoxy)-4-pyridazinol]
234 to 235	Cc1c(Br)ccc(C2CC2)c1Oc1nnc(Cl)cc1O [Compound No. 2587, 3-(3-Bromo-6-cyclopropyl-2-methylphenoxy)-6-chloro-4-pyridazinol]
211 to 212	N#Cc1ccc(C2CC2)c(Oc2nnc(Cl)cc2O)c1 [Compound No. 667, 3-[(6-Chloro-4-hydroxy-3-pyridazinyl)oxy]-4-cyclopropylbenzonitrile]
233 to 238	Oc1cc(Cl)nnc1Oc1cccc(Cl)c1Cl [Compound No. 443, 6-Chloro-3-(2,3-dichlorophenoxy)-4-pyridazinol]
200 to 203	Cc1cc(C)c(C2CC2)c(Oc2nnc(Cl)cc2O)c1 [Compound No. 1023, 6-Chloro-3-(2-cyclopropyl-3,5-dimethylphenoxy)-4-pyridazinol]
115 to 118	Cc1cccc(C2CC2)c1Oc1nnc(Cl)cc1OC(=O)N1CCCC1 [Compound No. 1937, 6-Chloro-3-(2-cyclopropyl-6-methylphenoxy)-4-pyridazinyl 1-pyrrolidinecarboxylate]
215 to 217	CCc1cccc(Br)c1Oc1nnc(Cl)cc1O [Compound No. 759, 3-(2-Bromo-6-ethylphenoxy)-6-chloro-4-pyridazinol]
215 to 217	Cc1cc(C)c(Oc2nnc(Cl)cc2O)c(C2CC2)c1 [Compound No. 1123, 6-Chloro-3-(2-cyclopropyl-4,6-dimethylphenoxy)-4-pyridazinol]
238 to 245	CC1COc2cccc(Oc3nnc(Cl)cc3O)c21 (stereo not shown) [Compound No. 529, 6-Chloro-3-[(3-methyl-2,3-dihydro-1-benzofuran-4-yl)oxy]-4-pyridazinol]
250 to 255	CC(C)c1cccc(I)c1Oc1nnc(Cl)cc1O [Compound No. 782, 6-Chloro-3-(2-iodo-6-isopropylphenoxy)-4-pyridazinol]
